Results: US9833497B2, “Human originated EGF domain proteins and use of the same” (CHENGDU SOURCEBIO LIMITED-LIABILITY COMPANY, priority 2013, dated 2017)

Experiments:
Format in all cases: cell-based
E. coli DH5α = experiment: Antibacterial activity: MIC and growth curve against E. coli DH5α in 96-well plate; conditions: minimal inhibitory concentration against E. coli DH5α; 96-well plate, 5×10^5 CFU/mL, 37° C., judged after 8 h
In short: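 MIC taken as lowest protein level with no bacterial growth, tracked by A600 every 30 min during 37 °C, 175 rpm culture. Two-fold protein series 50-12.5 μg/mL final, triplicate wells, against 5×10^5 CFU/mL of LB-washed mid-log cells.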

E. coli BL21 = experiment: MIC against Gram-negative bacteria: E. coli BL21; conditions: 5×10^5 CFU/mL
In short: (§1)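 LB broth cultures at McFarland 0.5, spun down, resuspended, diluted to 5×10^5 CFU/mL final. Two-fold serial dilutions of purified human EGF domain proteins, triplicate. 37° C, 175 rpm shaking. Endpoint: no visible growth.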

Pseudomonas aeruginosa = experiment: MIC against Gram-negative bacteria: Pseudomonas aeruginosa; conditions: 5×10^5 CFU/mL
In short: as §1

Klebsiella pneumonia = experiment: MIC against Gram-negative bacteria: Klebsiella pneumonia; conditions: 5×10^5 CFU/mL
In short: as §1

Enterobacter cloacae = experiment: MIC against Gram-negative bacteria: Enterobacter cloacae; conditions: 5×10^5 CFU/mL
In short: as §1

Aeromonas hydrophila = experiment: MIC against Gram-negative bacteria: Aeromonas hydrophila; conditions: 5×10^5 CFU/mL
In short: as §1

Citrobacter diversus = experiment: MIC against Gram-negative bacteria: Citrobacter diversus; conditions: 5×10^5 CFU/mL
In short: as §1

Moraxella catarrhalis = experiment: MIC against Gram-negative bacteria: Moraxella catarrhalis; conditions: 5×10^5 CFU/mL
In short: as §1

Proteus mirabilis = experiment: MIC against Gram-negative bacteria: Proteus mirabilis; conditions: 5×10^5 CFU/mL
In short: as §1

Proteus vulgaris = experiment: MIC against Gram-negative bacteria: Proteus vulgaris; conditions: 5×10^5 CFU/mL
In short: as §1

Serratia marcescens = experiment: MIC against Gram-negative bacteria: Serratia marcescens; conditions: 5×10^5 CFU/mL
In short: as §1

[1] = 10 h cultivation at 37° C., two-fold serial dilution

In the case of “PRT200 (NFSTCLSSKEGTICSGNGVCSNELKCVCNRHWIGSDCN; listed as Homo sapiens)”, the MIC (E. coli DH5α) is reported as 12.5 µg/mL, the “MIC (μg/mL) E. coli BL21” value (E. coli BL21; 10 h cultivation at 37° C.) is reported as 25 µg/mL and the “MIC (μg/mL) P. aeruginosa” value (Pseudomonas aeruginosa; 10 h cultivation at 37° C.) is reported as 50 µg/mL. The “MIC (μg/mL) K. pneumonia” value (Klebsiella pneumonia; 10 h cultivation at 37° C.) was 25 µg/mL, the “MIC (μg/mL) E. cloacae” value (Enterobacter cloacae; 10 h cultivation at 37° C.) was 12.5 µg/mL and the “MIC (μg/mL) A. hydrophila” value (Aeromonas hydrophila; 10 h cultivation at 37° C.) was 25 µg/mL. The “MIC (μg/mL) C. diversus” value (Citrobacter diversus; 10 h cultivation at 37° C.) was 50 µg/mL, the “MIC (μg/mL) M. catarrhalis” value (Moraxella catarrhalis; 10 h cultivation at 37° C.) was 25 µg/mL and the “MIC (μg/mL) P. mirabilis” value (Proteus mirabilis; 10 h cultivation at 37° C.) was 12.5 µg/mL. For the same substance, the “MIC (μg/mL) P. vulgaris” value (Proteus vulgaris; 10 h cultivation at 37° C.) was 50 µg/mL and the “MIC (μg/mL) S. marcescens” value (Serratia marcescens; 10 h cultivation at 37° C.) was 12.5 µg/mL.

In the case of “PRT545 (CNCSGPGIQELTDPTCDTDSGQCKCRPNVTGRRCDTCSPGFHGYPRCRP; listed as Homo sapiens)”, the MIC (E. coli DH5α) is reported as 12.5 µg/mL, the “MIC against E. coli BL21” value (E. coli BL21; 96-well plate, 37° C., 10 h) is reported as 12.5 µg/mL and the “MIC against P. aeruginosa” value (Pseudomonas aeruginosa; 96-well plate, 37° C., 10 h) is reported as 12.5 µg/mL. For the same substance, the “MIC against K. pneumonia” value (Klebsiella pneumonia; 96-well plate, 37° C., 10 h) was 25 µg/mL, the “MIC against E. cloacae” value (Enterobacter cloacae; 96-well plate, 37° C., 10 h) was 12.5 µg/mL and the “MIC against A. hydrophila” value (Aeromonas hydrophila; 96-well plate, 37° C., 10 h) was 25 µg/mL. The “MIC against C. diversus” value (Citrobacter diversus; 96-well plate, 37° C., 10 h) was 12.5 µg/mL, the “MIC against M. catarrhalis” value (Moraxella catarrhalis; 96-well plate, 37° C., 10 h) was 12.5 µg/mL and the “MIC against P. mirabilis” value (Proteus mirabilis; 96-well plate, 37° C., 10 h) was 12.5 µg/mL. The “MIC against P. vulgaris” value (Proteus vulgaris; 96-well plate, 37° C., 10 h) was 12.5 µg/mL and the “MIC against S. marcescens” value (Serratia marcescens; 96-well plate, 37° C., 10 h) was 50 µg/mL.

For “PRT163 (EYNECLSAPCLNAATCRDLVNGYECVCLAEYKGTHCE; listed as Homo sapiens)”, the MIC (E. coli DH5α) was 12.5 µg/mL, the “MIC (μg/mL) E. coli BL21” value (E. coli BL21; 10 h cultivation at 37° C.) was 25 µg/mL and the “MIC (μg/mL) P. aeruginosa” value (Pseudomonas aeruginosa; 10 h cultivation at 37° C.) was 12.5 µg/mL. The “MIC (μg/mL) K. pneumonia” value (Klebsiella pneumonia; 10 h cultivation at 37° C.) was 25 µg/mL, the “MIC (μg/mL) E. cloacae” value (Enterobacter cloacae; 10 h cultivation at 37° C.) was 12.5 µg/mL and the “MIC (μg/mL) A. hydrophila” value (Aeromonas hydrophila; 10 h cultivation at 37° C.) was 25 µg/mL. The “MIC (μg/mL) C. diversus” value (Citrobacter diversus; 10 h cultivation at 37° C.) was 12.5 µg/mL, the “MIC (μg/mL) M. catarrhalis” value (Moraxella catarrhalis; 10 h cultivation at 37° C.) was 25 µg/mL and the “MIC (μg/mL) P. mirabilis” value (Proteus mirabilis; 10 h cultivation at 37° C.) was 50 µg/mL. For the same substance, the “MIC (μg/mL) P. vulgaris” value (Proteus vulgaris; 10 h cultivation at 37° C.) was 25 µg/mL and the “MIC (μg/mL) S. marcescens” value (Serratia marcescens; 10 h cultivation at 37° C.) was 12.5 µg/mL.

“PRT248 (DVDECSARRGGCPQRCVNTAGSYWCQCWEGHSLSADGTLCV; listed as Homo sapiens)” was tested, and the MIC (E. coli DH5α) was 12.5 µg/mL, the “MIC (μg/mL) E. coli BL21” value (E. coli BL21; 10 h cultivation at 37° C.) was 25 µg/mL and the “MIC (μg/mL) P. aeruginosa” value (Pseudomonas aeruginosa; 10 h cultivation at 37° C.) was 12.5 µg/mL. For the same substance, the “MIC (μg/mL) K. pneumonia” value (Klebsiella pneumonia; 10 h cultivation at 37° C.) was 25 µg/mL, the “MIC (μg/mL) E. cloacae” value (Enterobacter cloacae; 10 h cultivation at 37° C.) was 12.5 µg/mL and the “MIC (μg/mL) A. hydrophila” value (Aeromonas hydrophila; 10 h cultivation at 37° C.) was 25 µg/mL. For the same substance, the “MIC (μg/mL) C. diversus” value (Citrobacter diversus; 10 h cultivation at 37° C.) was 12.5 µg/mL, the “MIC (μg/mL) M. catarrhalis” value (Moraxella catarrhalis; 10 h cultivation at 37° C.) was 25 µg/mL and the “MIC (μg/mL) P. mirabilis” value (Proteus mirabilis; 10 h cultivation at 37° C.) was 12.5 µg/mL. The “MIC (μg/mL) P. vulgaris” value (Proteus vulgaris; 10 h cultivation at 37° C.) was 25 µg/mL and the “MIC (μg/mL) S. marcescens” value (Serratia marcescens; 10 h cultivation at 37° C.) was 12.5 µg/mL.

In the case of “PRT168 (CLPGCDEQHGFCDKPGECKCRVGWQGRYC; listed as Homo sapiens)”, the MIC (E. coli DH5α) is reported as 25 µg/mL, the “MIC (μg/mL) E. coli BL21” value (E. coli BL21; 10 h cultivation at 37° C.) is reported as 25 µg/mL and the “MIC (μg/mL) P. aeruginosa” value (Pseudomonas aeruginosa; 10 h cultivation at 37° C.) is reported as 12.5 µg/mL. The “MIC (μg/mL) K. pneumonia” value (Klebsiella pneumonia; 10 h cultivation at 37° C.) was 25 µg/mL, the “MIC (μg/mL) E. cloacae” value (Enterobacter cloacae; 10 h cultivation at 37° C.) was 12.5 µg/mL and the “MIC (μg/mL) A. hydrophila” value (Aeromonas hydrophila; 10 h cultivation at 37° C.) was 50 µg/mL. For the same substance, the “MIC (μg/mL) C. diversus” value (Citrobacter diversus; 10 h cultivation at 37° C.) was 12.5 µg/mL, the “MIC (μg/mL) M. catarrhalis” value (Moraxella catarrhalis; 10 h cultivation at 37° C.) was 50 µg/mL and the “MIC (μg/mL) P. mirabilis” value (Proteus mirabilis; 10 h cultivation at 37° C.) was 12.5 µg/mL. The “MIC (μg/mL) P. vulgaris” value (Proteus vulgaris; 10 h cultivation at 37° C.) was 50 µg/mL and the “MIC (μg/mL) S. marcescens” value (Serratia marcescens; 10 h cultivation at 37° C.) was 12.5 µg/mL.

In the case of “PRT1061 (KRDPCLRKYKDFCIHGECKYVKELRAPSCICHPGYHGERCH; listed as Homo sapiens)”, the MIC (E. coli DH5α) is reported as 12.5 µg/mL, the “MIC E. coli BL21” value (E. coli BL21; [1]) is reported as 12.5 µg/mL and the “MIC P. aeruginosa” value (Pseudomonas aeruginosa; [1]) is reported as 12.5 µg/mL. For the same substance, the “MIC K. pneumonia” value (Klebsiella pneumonia; [1]) was 12.5 µg/mL, the “MIC E. cloacae” value (Enterobacter cloacae; [1]) was 12.5 µg/mL and the “MIC A. hydrophila” value (Aeromonas hydrophila; [1]) was 12.5 µg/mL. The “MIC C. diversus” value (Citrobacter diversus; [1]) was 12.5 µg/mL, the “MIC M. catarrhalis” value (Moraxella catarrhalis; [1]) was 50 µg/mL and the “MIC P. mirabilis” value (Proteus mirabilis; [1]) was 25 µg/mL. For the same substance, the “MIC P. vulgaris” value (Proteus vulgaris; [1]) was 12.5 µg/mL and the “MIC S. marcescens” value (Serratia marcescens; [1]) was 25 µg/mL.
